Experimental data taken from patent publication US10799507B2, “5-(7H-pyrrolo[2,3-d]pyrimidin-4-yl)-5-azaspiro[2.5]octane-8-carboxylic acid derivatives as novel JAK kinase inhibitors” (LEO Pharma A/S, priority 2017, dated 2020).

Tests used:
[1] = target: JAK1 (Homo sapiens (Human), UniProt P23458); experiment: JAK kinase assay (HTRF), JAK1; assay type: biochemical; details: catalytic domain, ATP at Km (7 μM)
Procedure, shortened: (§1)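 Catalytic-domain human JAK1 (GST-tagged, aa 850-1154) or His-tagged JAK2, baculovirus-expressed, phosphorylated 1 µM biotinylated TK peptide at Km ATP (JAK1 7 µM, 10 mM MgCl2, 50 nM SEB; JAK2 4 µM, 5 mM MgCl2) in pH 7.0 Hepes, 20-30 min RT. EDTA stop; overnight streptavidin-XL665/cryptate HTRF read.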

[2] = target: JAK2 (Homo sapiens (Human), UniProt O60674); experiment: JAK kinase assay (HTRF), JAK2; assay type: biochemical; details: catalytic domain, ATP at Km (4 μM)
Procedure, shortened: as §1

[3] = target: JAK3 (Homo sapiens (Human), UniProt P52333); experiment: JAK kinase assay (HTRF), JAK3; assay type: biochemical; details: catalytic domain, ATP at Km (2 μM)
Procedure, shortened: (§2)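 HTRF read-out of biotinylated TK peptide phosphorylation (1 μM) after a 20-30 min RT reaction in pH 7.0 Hepes buffer with 5 mM MgCl2 and 0.75% DMSO. JAK3 (His-tagged catalytic domain) used 2 μM ATP; TYK2 (GST-tagged, aa 871-1187) used 13 μM ATP plus 50 nM SEB, each at ATP Km.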

[4] = target: TYK2 (Homo sapiens (Human), UniProt P29597); experiment: JAK kinase assay (HTRF), TYK2; assay type: biochemical; details: catalytic domain, ATP at Km (13 μM)
Procedure, shortened: as §2

[5] = in vitro metabolic stability in human liver microsomes; assay type: in vitro ADME; details: human, liver microsomes, 0.5 μM compound, 0.5 mg/mL microsomes, NADPH, 40 min, 37° C.; read-out: Human liver microsome Clapp (apparent intrinsic clearance)
Procedure, shortened: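 Compounds at 0.5 μM incubated in duplicate with human liver microsomes (0.5 mg/mL), phosphate buffer and NADPH at 37 °C for 40 min, sampled at 0, 5, 10, 20, 40 min into cold acetonitrile. LC-TOF-MS depletion gave elimination rate constant, from which apparent intrinsic clearance (Clapp) was calculated.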

Chain of JAK3 (P52333 822-1111): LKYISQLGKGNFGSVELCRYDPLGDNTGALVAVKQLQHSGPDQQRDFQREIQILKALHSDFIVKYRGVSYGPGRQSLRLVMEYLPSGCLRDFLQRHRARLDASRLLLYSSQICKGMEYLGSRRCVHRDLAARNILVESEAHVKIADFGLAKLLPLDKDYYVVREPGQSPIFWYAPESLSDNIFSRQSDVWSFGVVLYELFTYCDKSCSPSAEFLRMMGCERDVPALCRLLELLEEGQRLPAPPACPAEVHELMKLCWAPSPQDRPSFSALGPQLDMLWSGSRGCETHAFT
Chain of JAK2 (O60674 849-1124): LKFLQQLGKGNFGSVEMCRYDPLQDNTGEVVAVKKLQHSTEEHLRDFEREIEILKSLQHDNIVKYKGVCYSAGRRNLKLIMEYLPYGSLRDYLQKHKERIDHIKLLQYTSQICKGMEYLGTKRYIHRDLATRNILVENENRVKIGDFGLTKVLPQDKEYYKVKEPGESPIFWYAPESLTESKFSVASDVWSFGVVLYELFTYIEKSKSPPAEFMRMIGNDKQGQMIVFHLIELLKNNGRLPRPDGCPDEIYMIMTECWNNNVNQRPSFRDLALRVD
Chain of TYK2 (P29597 871-1187): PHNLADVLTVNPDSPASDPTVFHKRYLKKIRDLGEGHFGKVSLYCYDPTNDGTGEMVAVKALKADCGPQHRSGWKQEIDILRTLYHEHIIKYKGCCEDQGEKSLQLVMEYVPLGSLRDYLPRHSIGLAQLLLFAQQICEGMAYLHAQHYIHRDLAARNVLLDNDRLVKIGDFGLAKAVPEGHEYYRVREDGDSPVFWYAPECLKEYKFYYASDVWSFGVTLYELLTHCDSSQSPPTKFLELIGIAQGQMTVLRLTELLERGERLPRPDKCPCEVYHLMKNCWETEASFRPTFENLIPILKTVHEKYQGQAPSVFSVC
Chain of JAK1 (P23458 850-1154): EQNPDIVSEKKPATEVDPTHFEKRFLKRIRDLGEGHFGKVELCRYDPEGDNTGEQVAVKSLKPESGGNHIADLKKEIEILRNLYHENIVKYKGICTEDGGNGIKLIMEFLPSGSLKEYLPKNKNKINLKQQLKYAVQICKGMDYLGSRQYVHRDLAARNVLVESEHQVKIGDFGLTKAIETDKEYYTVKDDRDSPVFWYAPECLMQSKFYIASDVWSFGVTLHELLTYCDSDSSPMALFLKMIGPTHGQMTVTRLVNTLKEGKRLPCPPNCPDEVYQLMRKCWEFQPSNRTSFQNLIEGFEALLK

SMILES | EC50 [1] [nM] | EC50 [2] [nM] | EC50 [3] [nM] | EC50 [4] [nM] | CLint scaled at 0.5 μM [5] [mL/min/kg]
C[C@H](NC(=O)[C@H]1CCN(c2ncnc3[nH]ccc23)CC12CC2)c1ccc(C#N)cc1 [Example 22, (8S)-N-[(1S)-1-(4-cyanophenyl)ethyl]-5-(7H-pyrrolo[2,3-d]pyrimidin-4-yl)-5-azaspiro[2.5]octane-8-carboxamide] | 1.2 | 3.2 | 7.1 | 43.9 | 123
N#Cc1ccc(CNC(=O)[C@H]2CCN(c3ncnc4[nH]ccc34)CC23CC3)cc1 [Example 13, (8S)-N-[(4-cyanophenyl)methyl]-5-(7H-pyrrolo[2,3-d]pyrimidin-4-yl)-5-azaspiro[2.5]octane-8-carboxamide] | 0.9 | 6.1 | 8.9 | 81.1 | 82
O=C(NCC(O)C1CCCCC1)[C@H]1CCN(c2ncnc3[nH]ccc23)CC12CC2 (stereo partly drawn) [Example 2, (8S)-N-(2-cyclohexyl-2-hydroxy-ethyl)-5-(7H-pyrrolo[2,3-d]pyrimidin-4-yl)-5-azaspiro[2.5]octane-8-carboxamide] | 0.5 | 1.3 | 3.7 | 4.6 | > 200
C[C@H](NC(=O)[C@H]1CCN(c2ncnc3[nH]ccc23)CC12CC2)[C@@H](O)C1CCCC1 [Example 5, (8S)-N-[(1S,2S)-2-cyclopentyl-2-hydroxy-1-methyl-ethyl]-5-(7H-pyrrolo[2,3-d]pyrimidin-4-yl)-5-azaspiro[2.5]octane-8-carboxamide] | 0.6 | 1.1 | 2.3 | 6.3 | > 200
O=C(NC[C@@H](O)c1ccccc1)[C@H]1CCN(c2ncnc3[nH]ccc23)CC12CC2 [Example 51, (8S)-N-[(2S)-2-hydroxy-2-phenyl-ethyl]-5-(7H-pyrrolo[2,3-d]pyrimidin-4-yl)-5-azaspiro[2.5]octane-8-carboxamide] | 3.5 | 11.3 | 49.2 | 40.5 | > 200
N#CC1CC(CNC(=O)C2CCN(c3ncnc4[nH]ccc34)CC23CC3)C1 (stereo not shown) [Example 59, N-[(3-cyanocyclobutyl)methyl]-5-(7H-pyrrolo[2,3-d]pyrimidin-4-yl)-5-azaspiro[2.5]octane-8-carboxamide] | 4.2 | 12.1 | 24.5 | 322 | 28
O=C(N[C@H](CO)c1ccccc1)C1CCN(c2ncnc3[nH]ccc23)CC12CC2 (stereo partly drawn) [Example 127, N-[(1S)-2-hydroxy-1-phenyl-ethyl]-5-(7H-pyrrolo[2,3-d]pyrimidin-4-yl)-5-azaspiro[2.5]octane-8-carboxamide] | 19.9 | 52.1 | 68.1 | 1100 | 44
C[C@@H](NC(=O)C1CCN(c2ncnc3[nH]ccc23)CC12CC2)c1ccc(C#N)cc1 (stereo partly drawn) [Example 111, N-[(1R)-1-(4-cyanophenyl)ethyl]-5-(7H-pyrrolo[2,3-d]pyrimidin-4-yl)-5-azaspiro[2.5]octane-8-carboxamide] | 11.2 | 52.1 | 123 | 930 | 111
O=C(NC[C@@H](O)c1ccccc1)C1CCN(c2ncnc3[nH]ccc23)CC12CC2 (stereo partly drawn) [Example 63, N-[(2S)-2-hydroxy-2-phenyl-ethyl]-5-(7H-pyrrolo[2,3-d]pyrimidin-4-yl)-5-azaspiro[2.5]octane-8-carboxamide] | 4.5 | 15.9 | 58.5 | 147 | > 200
O=C(N[C@@H](CO)[C@H](O)c1ccc(F)cn1)[C@H]1CCN(c2ncnc3[nH]ccc23)CC12CC2 (single isomer, unassigned) [Example 30] | 1.4 | 2.4 | 27.1 | 30.5 | 50
O=C(N[C@@H](CO)c1ccc(F)cc1F)[C@H]1CCN(c2ncnc3[nH]ccc23)CC12CC2 [Example 34, (8S)-N-[(1R)-1-(2,4-difluorophenyl)-2-hydroxy-ethyl]-5-(7H-pyrrolo[2,3-d]pyrimidin-4-yl)-5-azaspiro[2.5]octane-8-carboxamide] | 1.9 | 3.7 | 6.4 | 32.9 | 69
O=C(NC[C@@H](O)C1CCCC1)[C@H]1CCN(c2ncnc3[nH]ccc23)CC12CC2 [Example 32, (8S)-N-[(2S)-2-cyclopentyl-2-hydroxy-ethyl]-5-(7H-pyrrolo[2,3-d]pyrimidin-4-yl)-5-azaspiro[2.5]octane-8-carboxamide] | 1.8 | 5.2 | 8.3 | 25.4 | 159
C[C@](CO)(NC(=O)[C@H]1CCN(c2ncnc3[nH]ccc23)CC12CC2)c1ccc(C#N)cc1 [Example 27, (8S)-N-[(1S)-1-(4-cyanophenyl)-2-hydroxy-1-methyl-ethyl]-5-(7H-pyrrolo[2,3-d]pyrimidin-4-yl)-5-azaspiro[2.5]octane-8-carboxamide] | 1.4 | 3.2 | 7 | 44.2 | 61
O=C(NCC(O)c1ccc(F)cn1)[C@H]1CCN(c2ncnc3[nH]ccc23)CC12CC2 (stereo partly drawn) [Example 38, (8S)-N-[2-(5-fluoro-2-pyridyl)-2-hydroxy-ethyl]-5-(7H-pyrrolo[2,3-d]pyrimidin-4-yl)-5-azaspiro[2.5]octane-8-carboxamide] | 2.2 | 9 | 33.6 | 32.1 | 73
